Patent publication US12564559B2, “Combinations of LSD1 inhibitors for use in the treatment of solid tumors” (Oryzon Genomics, S.A., priority 2016, dated 2026)
Where two headings read alike, the source gives them in different places. One block for each compound: values may come before it.

Legend:
NCI-H1876 [1] = test: Growth Inhibition (ATPLite), SCLC cell line treated for 7 days (Example 1); type: cell-based, human; conditions: NCI-H1876, “classic” neuroendocrine, FIG. 1A
Procedure: (§1) Once cells have been expanded and divided at their expected doubling times, screening was started. Cells were seeded in growth media in black 384-well tissue culture treated plates at 500 cells per well (except where noted in Analyzer). Cells were equilibrated in assay plates via centrifugation and placed in incubators attached to the Dosing Modules at 37° C. for twenty-four hours before treatment. […] These Tzero (T0) plates were read using ultra-sensitive luminescence on Envision Plate Readers.

NCI-H510 = test: as above; type: cell-based, human; conditions: NCI-H510, “classic” neuroendocrine, FIG. 1B
Procedure: as §1

NCI-H526 model = test: NCI-H526 xenograft model, combination with etoposide and carboplatin (Example 4, FIG. 2B); type: in vivo, nu/nu mice; conditions: added at 20 upk 5/2 for three weeks to SOC (etoposide + carboplatin)
Procedure: 8-12-week old nu/nu mice were injected with 1×10^7 H526 cells or […] SHP-77 resuspended in 100 μL of 1:1 mixture of Matrigel® and PBS. Tumors were staged at 100-150 mm^3 animals and distributed into dosing groups. […] Carboplatin was administered i.p. at a dose of 100 mpk weekly for three weeks (qwkx3). […] Tumor volume was measure biweekly using a digital caliber. The endpoint of the experiment was a tumor volume of 1000 mm^3 or 90 days, whichever came first. Statistical analysis was performed using unpaired t-test and Gehan-Breslow-Wilcoxon test.

H510A xenograft model = test: NCI-H510A xenograft model, in vivo tumor growth inhibition (Example 9, FIG. 9); set-up: species or system athymic nude mice; conditions: 40 μg per kg five days on/two days off; after 21 days of dosing; compared to untreated controls
Procedure: 7-8-week old athymic nude mice animals were injected with 5×10^6 H510A cells resuspended in 100 μL of 1:1 mixture of Matrigel® matrix (Corning Inc., Tewksbury/MA, C. S. Hughes et al.^113) and PBS. Tumors were staged at 200-300 mm^3 animals and distributed into dosing groups. […] Tumor volume was measure biweekly using a digital caliber. The study was concluded when mean tumor volume within control group reached 2000 mm^3 or 28 days post-staging. Statistical analysis was performed using unpaired t-test.

DMS-114 = test: Cell response to LSD1 inhibition, SCLC cell line cultured 4 days (Example 5); type: cell-based, human; conditions: DMS-114, SubType V; for EC50: Homo sapiens, 96 h
From the text: (§2) As a positive control for cytotoxicity the Hsp90 inhibitor 17-N-allylamino-17-demethoxygeldanamycin (17-AAG, a geldanamycin analogue) was used as positive control in serial dilution.

NCI-H1048 = test: as above; type: cell-based, human; conditions: NCI-H1048, SubType V; for EC50: Homo sapiens, 96 h
From the text: as §2

NCI-H1417 = test: as above; type: cell-based, human; conditions: NCI-H1417, SubType C; for EC50: Homo sapiens, 96 h
From the text: as §2

NCI-H146 = test: as above; type: cell-based, human; conditions: NCI-H146, SubType C; for EC50: Homo sapiens, 96 h
From the text: as §2

NCI-H1876 [2] = test: as above; type: cell-based, human; conditions: NCI-H1876, SubType C; for EC50: Homo sapiens, 96 h
From the text: as §2

NCI-H187 = test: as above; type: cell-based, human; conditions: NCI-H187, SubType C; for EC50: Homo sapiens, 96 h
From the text: as §2

NCI-H2029 = test: as above; type: cell-based, human; conditions: NCI-H2029, SubType (C); for EC50: Homo sapiens, 96 h
From the text: as §2

NCI-H2081 = test: as above; type: cell-based, human; conditions: NCI-H2081, SubType C; for EC50: Homo sapiens, 96 h
From the text: as §2

NCI-H2171 = test: as above; type: cell-based, human; conditions: NCI-H2171, SubType V; for EC50: Homo sapiens, 96 h
From the text: as §2

NCI-H2227 = test: as above; type: cell-based, human; conditions: NCI-H2227, SubType C; for EC50: Homo sapiens, 96 h
From the text: as §2

NCI-H345 = test: as above; type: cell-based, human; conditions: NCI-H345, SubType C; for EC50: Homo sapiens, 96 h
From the text: as §2

NCI-H446 = test: as above; type: cell-based, human; conditions: NCI-H446, SubType V; for EC50: Homo sapiens, 96 h
From the text: as §2

NCI-H510A = test: as above; type: cell-based, human; conditions: SubType C; for EC50: Homo sapiens, 96 h
From the text: as §2

NCI-H526 = test: as above; type: cell-based, human; conditions: NCI-H526, SubType V; for EC50: Homo sapiens, 96 h
From the text: as §2

NCI-H69 = test: as above; type: cell-based, human; conditions: NCI-H69, SubType C; for EC50: Homo sapiens, 96 h
From the text: as §2

NCI-H748 = test: as above; type: cell-based, human; conditions: NCI-H748, SubType C; for EC50: Homo sapiens, 96 h
From the text: as §2

NCI-H82 = test: as above; type: cell-based, human; conditions: NCI-H82, SubType V; for EC50: Homo sapiens, 96 h
From the text: as §2

SBC-5 = test: as above; type: cell-based, human; conditions: SBC-5, SubType (V); for EC50: Homo sapiens, 96 h
From the text: as §2

SHP-77 = test: as above; type: cell-based, human; conditions: SHP-77, SubType V(C); for EC50: Homo sapiens, SHP77, 96 h
From the text: as §2

[3] = read-out: Sensitivity to LSD1 inh.

Compound: N[C@H]1CC[C@H](N[C@@H]2C[C@H]2c2ccccc2)CC1 [listing 1 of 2 here]
- sensitivity of cell line to the compound (NCI-H1876 [1]): high level of sensitivity
- sensitivity of cell line to the compound (NCI-H510): high level of sensitivity
- duration of tumor regression (NCI-H526 model): improved the duration of tumor regression
- delay of tumor regrowth (NCI-H526 model; after the suspension of dosing): 30 days
- tumor growth inhibition (H510A xenograft model): 34%

- EC50 (DMS-114; read-out: EC50): > 50 nM
- EC50 (DMS-114; [3]): ≥ 50 nM
- EC50 (NCI-H1048; read-out: EC50): > 50 nM
- EC50 (NCI-H1048; [3]): ≥ 50 nM
- EC50 (NCI-H1417; read-out: EC50): 0.302 nM
- EC50 (NCI-H1417; [3]): < 50 nM
- EC50 (NCI-H146; read-out: EC50): 0.1 nM
- EC50 (NCI-H146; [3]): < 50 nM
- EC50 (NCI-H1876 [2]; read-out: EC50): 0.0432 nM
- EC50 (NCI-H1876 [2]; [3]): < 50 nM
- EC50 (NCI-H187; read-out: EC50): 0.136 nM
- EC50 (NCI-H187; [3]): < 50 nM
- EC50 (NCI-H2029; read-out: EC50): > 50 nM
- EC50 (NCI-H2029; [3]): ≥ 50 nM
- EC50 (NCI-H2081; read-out: EC50): 0.92 nM
- EC50 (NCI-H2081; [3]): < 50 nM
- EC50 (NCI-H2171; read-out: EC50): > 50 nM
- EC50 (NCI-H2171; [3]): ≥ 50 nM
- EC50 (NCI-H2227; read-out: EC50): > 50 nM
- EC50 (NCI-H2227; [3]): ≥ 50 nM
- EC50 (NCI-H345; read-out: EC50): 0.0275 nM
- EC50 (NCI-H345; [3]): < 50 nM
- EC50 (NCI-H446; read-out: EC50): > 50 nM
- EC50 (NCI-H446; [3]): ≥ 50 nM
- EC50 (NCI-H510A; read-out: EC50): 0.315 nM
- EC50 (NCI-H510A; [3]): < 50 nM
- EC50 (NCI-H526; read-out: EC50): 0.632 nM
- EC50 (NCI-H526; [3]): < 50 nM
- EC50 (NCI-H69; read-out: EC50): 0.585 nM
- EC50 (NCI-H69; [3]): < 50 nM
- EC50 (NCI-H748; read-out: EC50): 0.3 nM
- EC50 (NCI-H748; [3]): < 50 nM
- EC50 (NCI-H82; read-out: EC50): > 50 nM
- EC50 (NCI-H82; [3]): ≥ 50 nM
- EC50 (SBC-5; read-out: EC50): > 50 nM
- EC50 (SBC-5; [3]): ≥ 50 nM
- EC50 (SHP-77; read-out: EC50): > 50 nM
- EC50 (SHP-77; [3]): ≥ 50 nM
Compound: N[C@H]1CC[C@H](N[C@@H]2C[C@H]2c2ccccc2)CC1 [listing 2 of 2 here]
- Max. Response (%) (DMS-114): 0%
- Max. Response (%) (NCI-H1048): 27%
- Max. Response (%) (NCI-H1417): 77%
- Max. Response (%) (NCI-H146): 48%
- Max. Response (%) (NCI-H1876 [2]): 145%
- Max. Response (%) (NCI-H187): 61%
- Max. Response (%) (NCI-H2029): 0%
- Max. Response (%) (NCI-H2081): 10%
- Max. Response (%) (NCI-H2171): 0%
- Max. Response (%) (NCI-H2227): 0%
- Max. Response (%) (NCI-H345): 7%
- Max. Response (%) (NCI-H446): 7%
- Max. Response (%) (NCI-H510A): 68%
- Max. Response (%) (NCI-H526): 35%
- Max. Response (%) (NCI-H69): 44%
- Max. Response (%) (NCI-H748): 13%
- Max. Response (%) (NCI-H82): 0%
- Max. Response (%) (SBC-5): 23%
- Max. Response (%) (SHP-77): 0%
